Measured values taken from ChEMBL document CHEMBL5233281, “Design, synthesis and biological evaluation of novel 1,3,4,9-tetrahydropyrano[3,4-b]indoles as potential treatment of triple negative breast cancer by suppressing PI3K/AKT/mTOR pathway” (Bioorg Med Chem, 2021).
pIC50: −log10 of the molar value. Active and inactive are the calls of the source. The calls are words filed in the database; no cut-off is given here.

Columns and labels:
[1] = system: MDA-MB-231; assay: Induction of reactive oxygen species generation in human MDA-MB-231 cells at 1 uM incubated for 24 hrs by DCFH-DA staining based flow cytometry; assay type: functional, cell-based
[2] = system: MDA-MB-231; assay: Induction of apoptosis in human MDA-MB-231 cells assessed as increase in apoptotic cells at 2 uM incubated for 48 hrs by AnnexinV-FITC/PI staining based flow cytometry (reference value: 5.24%); assay type: functional
[3] = Selectivity index, ratio of IC50 for antiproliferative activity against human MCF-10A cells to IC50 for antiproliferative activity against human MDA-MB-231 cells; assay type: toxicity, cell-based; settings: MCF-10A cells and MDA-MB-231 cells, read-out: Ratio IC50
[4] = system: MDA-MB-231; assay: Antiproliferative activity against human MDA-MB-231 cells assessed as inhibition of cell growth at 1 to 4 uM by CCK8 assay; assay type: functional, cell-based; settings: dose 1-4 µM, time 24-96 hrs, TDE = time-dependent effect
[5] = Antiproliferative activity against human MCF-10A cells assessed as inhibition of cell growth incubated for 72 hrs by CCK8 assay; assay type: toxicity, cell-based
[6] = system: MDA-MB-231; assay: Induction of reactive oxygen species generation in human MDA-MB-231 cells incubated for 24 hrs by DCFH-DA staining based flow cytometry; assay type: functional, cell-based; settings: dose 1-4 µM
[7] = Inhibition of PI3K/Akt/mTOR signaling in human MDA-MB-231 cells assessed as reduction in Akt phosphorylation at Ser473 residue incubated for 48 hrs by western blot analysis; assay type: cell-based; settings: dose 1-4 µM
[8] = system: MDA-MB-231; assay: Induction of cell cycle arrest in human MDA-MB-231 cells assessed as downregulation of Cyclin D1 protein expression at 1 to 4 uM incubated for 48 hrs by western blot analysis; assay type: functional, cell-based; settings: dose 1-4 µM
[9] = system: MDA-MB-231; assay: Induction of apoptosis in human MDA-MB-231 cells assessed as increase in cleaved caspase-8 protein expression at 1 to 4 uM incubated for 48 hrs by western blot analysis; assay type: functional, cell-based; settings: dose 1-4 µM
[10] = system: MDA-MB-231; assay: Induction of apoptosis in human MDA-MB-231 cells assessed as decrease in Bcl-2 protein expression measured after 48 hrs by western blot analysis; assay type: functional, cell-based; settings: dose 1-4 µM
[11] = system: MDA-MB-231; assay: Induction of cell cycle arrest in human MDA-MB-231 cells assessed as accumulation of cells at G0/G1 phase at 4 uM incubated for 48 hrs by PI staining based flow cytometry (reference value: 48.33%); assay type: functional
[12] = Inhibition of PI3K/Akt/mTOR signaling in human MDA-MB-231 cells assessed as reduction in Akt phosphorylation at Thr308 residue incubated for 48 hrs by western blot analysis; assay type: cell-based; settings: dose 1-4 µM
[13] = system: MDA-MB-231; assay: Antiproliferative activity against human MDA-MB-231 cells assessed as inhibition of cell growth incubated for 72 hrs by CCK8 assay; assay type: functional, cell-based; settings: MDA-MB-231, 72 h
[14] = system: MDA-MB-231; assay: Induction of apoptosis in human MDA-MB-231 cells assessed as increase in apoptotic cells at 1 uM incubated for 48 hrs by AnnexinV-FITC/PI staining based flow cytometry (reference value: 5.24%); assay type: functional

Question: Which Activity [1] does the source give for `Fc1cc(F)cc(C2OCCc3c2[nH]c2ccccc32)c1` (centres undefined) here?
Answer: inactive

Question: What about the Activity [2] of the same compound?
Answer: 22.17%

Question: What about the selectivity ratio [3] of the same compound?
Answer: 10.8

Question: What about the Activity [4] of the same compound?
Answer: Tde

Question: What about the IC50 at 72 h [5] of the same compound?
Answer: 24.6 µM

Question: What about the Activity [6] of the same compound?
Answer: Dose-Dependent Effect

Question: And the inhibition [7]?
Answer: Dose-Dependent Effect

Question: What about the Activity [8] of the same compound?
Answer: Active

Question: What about the Activity [9] of the same compound?
Answer: Active

Question: And the Activity [10]?
Answer: Dose-Dependent Effect

Question: What about the Activity [11] of the same compound?
Answer: 66.67%

Question: And the inhibition [12]?
Answer: Dose-Dependent Effect

Question: And the pIC50 [13]?
Answer: 5.64

Question: And the Activity [14]?
Answer: 16.77%
